tested on: MDA-MB-231 human breast cancer cells; assay: Cell proliferation assay (CellTiter-Glo, 72 hours treatment); assay type: cell-based; settings: Homo sapiens; MDA-MB-231 cells, 72 hours at 37° C., CellTiter-Glo; read-out: MDA-MB-231 cell proliferation assay (IC50)
Experimental: Human tumor cell lines were cultured in the appropriate media (DMEM and RPMI) supplemented with penicillin G (100 U/ml), streptomycin (100 μg/ml), 10% FBS in a humidified atmosphere of 5% CO2 maintained at 37° C. Exponentially growing cells were seeded at 2,500 cells/well in 96 well plates prior to drug treatment. The following day, cells were treated with either DMSO (vehicle control) or eIF4A inhibitors at the appropriate dose for 72 hours at 37° C. Following compound treatment, cell proliferation was assessed by CellTiter-Glo assay (Promega, Madison Wis.) according to the manufacturer's protocol. Dose-response curves were fitted by non-linear regression (sigmoidal dose response model) using KaleidaGraph (Synergy Software, Reading Pa.) and IC50 values were calculated.
To this end, IC50 values of less than 100 nM are labelled as “+++”, from 100 nM to 1000 nM are labelled as “++”, and greater than 1000 nM are labelled as “+” (NA means “not available”).

`CCN(CC)C[C@H]1[C@@H](O)[C@@]2(O)c3c(cc(OC)nc3OC)O[C@@]2(c2ccc(C#N)cc2)[C@@H]1c1ccccc1` (racemic) [232F, Rac-4-((5aR,6S,7S,8R,8aS)-7-((diethylamino)methyl)-8,8a-dihydroxy-1,3-dimethoxy-6-phenyl-6,7,8,8a-tetrahydro-5aH-cyclopenta[4,5]furo[3,2-c]pyridin-5a-yl)benzonitrile] and `COc1cc2c(c(OC)n1)[C@]1(O)[C@H](O)[C@H](CN(C)C)[C@@H](c3ccccc3)[C@]1(c1ccc(Br)cc1)O2` (racemic) [230F, Rac-(5aR,6S,7S,8R,8aS)-5a-(4-bromophenyl)-7-((dimethylamino)methyl)-1,3-dimethoxy-6-phenyl-5a,6,7,8-tetrahydro-8aH-cyclopenta[4,5]furo[3,2-c]pyridine-8,8a-diol] cannot be ordered by IC50: under 100 nM for the first, under 100 nM for the second.

`CS(=O)(=O)[C@H]1[C@@H](O)[C@@]2(O)c3ncc(Cl)cc3O[C@@]2(c2ccc(C#N)cc2)[C@@H]1c1ccccc1` (racemic) [85F, Rac-4-((5aR,6S,7R,8S,8aS)-3-chloro-8,8a-dihydroxy-7-(methylsulfonyl)-6-phenyl-6,7,8,8a-tetrahydro-5aH-cyclopenta[4,5]furo[3,2-b]pyridin-5a-yl)benzonitrile] and `CNS(=O)(=O)[C@H]1[C@@H](O)[C@@]2(O)c3ncc(Cl)cc3O[C@@]2(c2ccc(C#N)cc2)[C@@H]1c1ccccc1` (racemic) [125F, rac-(5aR,6S,7R,8S,8aS)-3-chloro-5a-(4-cyanophenyl)-8,8a-dihydroxy-N-methyl-6-phenyl-5a,7,8,8a-tetrahydro-6H-cyclopenta[4,5]furo[3,2-b]pyridine-7-sulfonamide] cannot be ordered by IC50: over 1000 nM for the first, over 1000 nM for the second.

Going from `COC(=O)[C@H]1[C@@H](O)[C@@]2(O)c3c(cc(Cl)nc3OC)O[C@@]2(c2ccc(Br)cc2)[C@@H]1c1ccccc1` (racemic) [136F, Rac-Methyl (5aR,6S,7R,8R,8aS)-5a-(4-bromophenyl)-3-chloro-8,8a-dihydroxy-1-methoxy-6-phenyl-5a,7,8,8a-tetrahydro-6H-cyclopenta[4,5]furo[3,2-c]pyridine-7-carboxylate] to `CN(C)C(=O)[C@H]1[C@@H](O)[C@@]2(O)c3nn(C)c(Cl)c3O[C@@]2(c2ccc(Br)cc2)[C@@H]1c1ccccc1` (racemic) [37F, Rac-(4aR,5S,6R,7R,7aS)-4a-(4-bromophenyl)-3-chloro-7,7a-dihydroxy-N,N,2-trimethyl-5-phenyl-2,4a,5,6,7,7a-hexahydrocyclopenta[4,5]furo[3,2-c]pyrazole-6-carboxamide], the IC50 rises from under 100 nM to over 1000 nM. The first is the more potent here.

First: CNC[C@H]1[C@@H](O)[C@@]2(O)c3ncc(Cl)cc3O[C@@]2(c2ccc(C#N)cc2)[C@@H]1c1ccccc1 (racemic) [39F, Rac-4-((5aR,6S,7S,8R,8aS)-3-chloro-8,8a-dihydroxy-7-((methylamino)methyl)-6-phenyl-6,7,8,8a-tetrahydro-5aH-cyclopenta[4,5]furo[3,2-b]pyridin-5a-yl)benzonitrile]
Second: CN(C)C[C@H]1[C@@H](C#N)[C@@]2(O)c3ncc(Cl)cc3O[C@@]2(c2ccc(C#N)cc2)[C@@H]1c1ccccc1 (racemic) [228F, Rac-(5aR,6S,7R,8S,8aR)-3-chloro-5a-(4-cyanophenyl)-7-((dimethylamino)methyl)-8a-hydroxy-6-phenyl-5a,7,8,8a-tetrahydro-6H-cyclopenta[4,5]furo[3,2-b]pyridine-8-carbonitrile]
The IC50 of the first is lower: 100 to 1000 nM for the first, over 1000 nM for the second.

`COc1cncc2c1[C@]1(O)[C@H](O)[C@H](C(=O)N3[C@@H]4CC[C@H]3COC4)[C@@H](c3ccccc3)[C@]1(c1ccc(Br)cc1)O2` (racemic) [264F, Rac-((1R,5S)-3-oxa-8-azabicyclo[3.2.1]octan-8-yl)((4bS,5R,6R,7S,7aR)-7a-(4-bromophenyl)-4b,5-dihydroxy-4-methoxy-7-phenyl-4b,6,7,7a-tetrahydro-5H-cyclopenta[4,5]furo[2,3-c]pyridin-6-yl)methanone] and `COc1cncc2c1[C@]1(O)[C@H](O)[C@H](C(=O)N3CCCCC3)[C@@H](c3ccccc3)[C@]1(c1ccc(Br)cc1)O2` (racemic) [257F, Rac-((4bS,5R,6R,7S,7aR)-7a-(4-bromophenyl)-4b,5-dihydroxy-4-methoxy-7-phenyl-4b,6,7,7a-tetrahydro-5H-cyclopenta[4,5]furo[2,3-c]pyridin-6-yl)(piperidin-1-yl)methanone] cannot be ordered by IC50: under 100 nM for the first, under 100 nM for the second.

`COc1nc(C#N)cc2c1[C@]1(O)[C@H](O)[C@H](CN3CC(F)C3)[C@@H](c3ccccc3)[C@]1(c1ccc(C#N)cc1)O2` (racemic) [211Fa, Rac-(5aR,6S,7S,8R,8aS)-5a-(4-cyanophenyl)-7-((3-fluoroazetidin-1-yl)methyl)-8,8a-dihydroxy-1-methoxy-6-phenyl-5a,7,8,8a-tetrahydro-6H-cyclopenta[4,5]furo[3,2-c]pyridine-3-carbonitrile] and `COc1nc(C#N)cc2c1[C@]1(O)[C@H](O)[C@H](CN3CCC34CC4(F)F)[C@@H](c3ccccc3)[C@]1(c1ccc(C#N)cc1)O2` (mixture of isomers) [221F, Rac-(5aR,6S,7S,8R,8aS)-5a-(4-cyanophenyl)-7-((1,1-difluoro-4-azaspiro[2.3]hexan-4-yl)methyl)-8,8a-dihydroxy-1-methoxy-6-phenyl-5a,7,8,8a-tetrahydro-6H-cyclopenta[4,5]furo[3,2-c]pyridine-3-carbonitrile] cannot be ordered by IC50: under 100 nM for the first, under 100 nM for the second.

Going from `COc1nc(C#N)cc2c1[C@]1(O)[C@H](O)[C@H](CN(C)C)[C@@H](c3ccccc3)[C@]1(c1ccc(C(F)F)cc1)O2` (racemic) [146F, Rac-(5aR,6S,7S,8R,8aS)-5a-(4-(difluoromethyl)phenyl)-7-((dimethylamino)methyl)-8,8a-dihydroxy-1-methoxy-6-phenyl-5a,7,8,8a-tetrahydro-6H-cyclopenta[4,5]furo[3,2-c]pyridine-3-carbonitrile] to `CN(C)C(=O)[C@@H]1[C@@H](c2ccccc2)[C@]2(c3ccc(C#N)cc3)Oc3cc(Cl)cnc3[C@]2(O)[C@@]1(C)O` (racemic) [33Fb, Rac-(5aR,6S,7R,8S,8aS)-3-chloro-5a-(4-cyanophenyl)-8,8a-dihydroxy-N,N,8-trimethyl-6-phenyl-5a,7,8,8a-tetrahydro-6H-cyclopenta[4,5]furo[3,2-b]pyridine-7-carboxamide], the IC50 rises from under 100 nM to over 1000 nM.

`COC1=C(C(=O)N(C)C)[C@@H](c2ccccc2)[C@]2(c3ccc(Br)cc3)Oc3cc(Cl)cnc3[C@]12O` (racemic) [35F, rac-(5aR,6R,8aS)-5a-(4-bromophenyl)-3-chloro-8a-hydroxy-8-methoxy-N,N-dimethyl-6-phenyl-5a,8a-dihydro-6H-cyclopenta[4,5]furo[3,2-b]pyridine-7-carboxamide] and `COC(=O)C1(F)[C@@H](O)[C@@]2(O)c3ncc(Cl)cc3O[C@@]2(c2ccc(C#N)cc2)[C@@H]1c1ccccc1` (mixture of isomers) [59F, Rac-methyl (5aR,6S,8S,8aS)-3-chloro-5a-(4-cyanophenyl)-7-fluoro-8,8a-dihydroxy-6-phenyl-5a,7,8,8a-tetrahydro-6H-cyclopenta[4,5]furo[3,2-b]pyridine-7-carboxylate] cannot be ordered by IC50: over 1000 nM for the first, over 1000 nM for the second.

`COC(=O)[C@@]12C[C@@H]1[C@@]1(O)c3ncc(Cl)cc3O[C@@]1(c1ccc(C#N)cc1)[C@@H]2c1ccccc1` (racemic) [25F, Rac-methyl (5aR,6R,6aS,7aS,7bR)-3-chloro-5a-(4-cyanophenyl)-7b-hydroxy-6-phenyl-5a,7,7a,7b-tetrahydrocyclopropa[4′,5′]cyclopenta[1′,2′:4,5]furo[3,2-b]pyridine-6a(6H)-carboxylate] gave an IC50 of over 1000 nM.

From patent publication US10577378B2, “EIF4A-inhibiting compounds and methods related thereto” (eFFECTOR Therapeutics, Inc., priority 2015, dated 2020)
